Assay results as given in patent US20260217687A1 (NeoPhore Limited, priority 2023, published 2026).

Each molecule was assayed against T1, recombinant N-terminal MLH1 (residues 15-340) (Homo sapiens, UniProt P40692) (assay: Fluorescence Polarisation Assay for MLH1). Conditions: 100 nM N-terminal MLH1, 5 nM probe compound.
T1 construct: recombinant N-terminal MLH1 (residues 15-340)
T1 sequence (P40692 15-340): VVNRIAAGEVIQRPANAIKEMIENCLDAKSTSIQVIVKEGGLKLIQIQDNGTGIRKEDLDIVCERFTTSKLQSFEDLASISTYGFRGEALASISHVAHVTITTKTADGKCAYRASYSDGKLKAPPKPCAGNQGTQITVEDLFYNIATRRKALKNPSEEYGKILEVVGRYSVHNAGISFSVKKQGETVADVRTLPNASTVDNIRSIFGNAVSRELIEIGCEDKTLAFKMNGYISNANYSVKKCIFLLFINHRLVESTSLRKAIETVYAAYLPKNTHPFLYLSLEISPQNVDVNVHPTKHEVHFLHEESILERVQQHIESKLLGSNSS
Assay type: binding
Procedure: Fluorescence Polarisation Assay for MLH1
Test compounds, as 10 mM DMSO stocks, were dispensed into a 384-well Low Flange Black Flat Bottom Polystyrene Non-binding Surface plate (Corning®, item number 3575) using a Labcyte Echo acoustic liquid handler. […] 20 μL of a 2× solution (200 nM) of recombinant N-terminal MLH1 (residues 15-340) in assay buffer (25 mM HEPES, pH 7.5, 250 mM NaCl, 10 mM MgCl2, 0.01% Triton X-100, 5 mM Dithiothreitol) was added to all wells in columns 1-23 and 20 μL assay buffer was added to all wells in column 24 using an E1-ClipTip pipette (ThermoFisher). Plates were centrifuged for 1 minute at 250 xg and were incubated at room temperature for 30 minutes prior to the addition of 20 μL of 2×(10 nM) of 5-((5-(4-((2-(2-(Benzyloxy)-4,6-dihydroxybenzoyl)isoindolin-5-yl)methyl)piperazin-1-yl)pentyl)carbamoyl)-2-(6-(dimethylamino)-3-(dimethyliminio)-3H-xanthen-9-yl)benzoate (referred to hereinafter as “probe compound”) in assay buffer (prepared from a 1 mM DMSO stock) with an E1-ClipTip pipette (ThermoFisher). The final concentration of N-terminal MLH1 was 100 nM and the final concentration of the probe compound was 5 nM. Compound plates were centrifuged for 1 minute at 250 xg for 1 minute and immediately read on a PheraStar FSX (fitted with 384-well aperture spoon and 590 675 675 FP optic module). The gain and focus were adjusted before each plate was read so that the polarisation of a no enzyme control (column 24) was equal to 35 mP. Data were normalised against the no inhibitor controls (column 23) and no enzyme controls (column 24).

IC50 | Compound
100 to 1000 nM | COCCOc1ccc2c(c1)CN(C(=O)c1c(O)cc(C(F)F)cc1OCc1ccccc1)C2 [Example 4.77, (2-(Benzyloxy)-4-(difluoromethyl)-6-hydroxyphenyl)(5-(2-methoxyethoxy)isoindolin-2-yl)methanone]
100 to 1000 nM | N#Cc1cc(O)c(C(=O)N2Cc3cccc(N[C@H]4CCOC4)c3C2)c(OCc2ccccc2)c1 [Example 12, (S)-3-(Benzyloxy)-5-hydroxy-4-(4-((tetrahydrofuran-3-yl)amino)isoindoline-2-carbonyl)benzonitrile]
100 to 1000 nM | COc1cc2c(c(N[C@H]3CCOC3)c1)CN(C(=O)c1c(O)cc(C(F)F)cc1OCc1ccccc1)C2 [Example 4.18, (S)-(2-(Benzyloxy)-4-(difluoromethyl)-6-hydroxyphenyl)(6-methoxy-4-((tetrahydrofuran-3-yl)amino)isoindolin-2-yl)methanone]
1000 to 10000 nM | N#Cc1cc(O)c(C(=O)N2Cc3cnc(N)cc3C2)c(OCc2ccccc2)c1 [Example 27.10, 4-(6-Amino-2,3-dihydro-1H-pyrrolo[3,4-c]pyridine-2-carbonyl)-3-(benzyloxy)-5-hydroxybenzonitrile hydroformate]
1000 to 10000 nM | CNc1cccc2c1CN(C(=O)c1c(O)cc(C(F)F)cc1OCc1ccccc1)C2 [Example 4.34, (2-(Benzyloxy)-4-(difluoromethyl)-6-hydroxyphenyl) (4-(methylamino)isoindolin-2-yl) methanone]
100 to 1000 nM | CN1CC[C@H](Oc2ccc3c(c2)CN(C(=O)c2c(O)cc(C#N)cc2OCc2ccccc2)C3)C1 [Example 10.31, (S)-3-(Benzyloxy)-5-hydroxy-4-(5-((1-methylpyrrolidin-3-yl)oxy)isoindoline-2-carbonyl)benzonitrile]
100 to 1000 nM | CN1CC[C@@H](Nc2cccc3c2CN(C(=O)c2c(O)cc(C(F)F)cc2OCc2ccccc2)CC3)C1=O [Example 4.15, (R)-3-((2-(2-(Benzyloxy)-4-(difluoromethyl)-6-hydroxybenzoyl)-1,2,3,4-tetrahydroisoquinolin-8-yl)amino)-1-methylpyrrolidin-2-one]
100 to 1000 nM | CN(C)CCOc1ccc2c(c1)CN(C(=O)c1c(O)cc(C(F)F)cc1OCc1ccccc1)CC2 [Example 4.40, (2-(Benzyloxy)-4-(difluoromethyl)-6-hydroxyphenyl)(7-(2-(dimethylamino)ethoxy)-3,4-dihydroisoquinolin-2(1H)-yl)methanone]
100 to 1000 nM | CN1CC[C@H](Oc2ccc3c(c2)CCN(C(=O)c2c(O)cc(C(F)F)cc2OCc2ccccc2)C3)C1 [Example 4.64, (S)-(2-(Benzyloxy)-4-(difluoromethyl)-6-hydroxyphenyl)(6-((1-methylpyrrolidin-3-yl)oxy)-3,4-dihydroisoquinolin-2(1H)yl)methanone]
1000 to 10000 nM | O=C(c1c(O)cc(C(F)F)cc1OCc1ccccc1)N1CCc2cccnc21 [Example 27.15, (2-(Benzyloxy)-4-(difluoromethyl)-6-hydroxyphenyl)(2,3-dihydro-1H-pyrrolo[2,3-b]pyridin-1-yl)methanone]
< 100 nM | CN(C)CCOc1cc2c(c(N[C@@H]3CCOC3)c1)CN(C(=O)c1c(O)cc(C(F)F)cc1OCc1ccccc1)C2 [Example 4.75, (R)-(2-(Benzyloxy)-4-(difluoromethyl)-6-hydroxyphenyl) (6-(2-(dimethylamino)ethoxy)-4-((tetrahydrofuran-3-yl)amino)isoindolin-2-yl)methanone]
100 to 1000 nM | CN1C[C@H](Nc2cccc3c2CN(C(=O)c2c(O)cc(C#N)cc2OCc2ccccc2)C3)CC1=O (single isomer, unassigned) [Example 10.7, (R)-3-(Benzyloxy)-5-hydroxy-4-(4-((1-methyl-5-oxopyrrolidin-3-yl)amino)isoindoline-2-carbonyl)benzonitrile or (S)-3-(benzyloxy)-5-hydroxy-4-(4-((1-methyl-5-oxopyrrolidin-3-yl)amino)isoindoline-2-carbonyl)benzonitrile]
100 to 1000 nM | N#Cc1cc(O)c(C(=O)N2Cc3ccc(OC4CCOCC4)cc3C2)c(OCc2ccccc2)c1 [Example 10.36, 3-(Benzyloxy)-5-hydroxy-4-(5-((tetrahydro-2H-pyran-4-yl)oxy)isoindoline-2-carbonyl)benzonitrile]
1000 to 10000 nM | N#Cc1cc(O)c(C(=O)N2CCc3ccc(NC4CCOC4)cc32)c(OCc2ccccc2)c1 (stereo not drawn) [Example 27.3, 3-(Benzyloxy)-5-hydroxy-4-(6-((tetrahydrofuran-3-yl)amino)indoline-1-carbonyl)benzonitrile]
100 to 1000 nM | CC(=O)N1CCC(Nc2cccc3c2CN(C(=O)c2c(O)cc(C#N)cc2OCc2ccccc2)C3)CC1 [Example 10.16, 4-(4-((1-Acetylpiperidin-4-yl)amino)isoindoline-2-carbonyl)-3-(benzyloxy)-5-hydroxybenzonitrile]
100 to 1000 nM | O=C(c1c(O)cc(C(F)F)cc1OCc1ccccc1)N1CCc2cccc(NC3COC3)c2C1 [Example 4.7, (2-(Benzyloxy)-4-(difluoromethyl)-6-hydroxyphenyl)(8-(oxetan-3-ylamino)-3,4-dihydroisoquinolin-2(1H)-yl) methanone]
1000 to 10000 nM | CC(=O)N1CCC[C@@H](Nc2cccc3c2CN(C(=O)c2c(O)cc(C#N)cc2OCc2ccccc2)C3)C1 [Example 10.17, (R)-4-(4-((1-Acetylpiperidin-3-yl)amino)isoindoline-2-carbonyl)-3-(benzyloxy)-5-hydroxybenzonitrile]
1000 to 10000 nM | O=C(c1c(O)cc(C(F)F)cc1OCc1ccccc1)N1Cc2cccc(OC3CCOC3)c2C1 (stereo not drawn) [Example 4.79, (2-(Benzyloxy)-4-(difluoromethyl)-6-hydroxyphenyl)(4-((tetrahydrofuran-3-yl)oxy)isoindolin-2-yl)methanone]
100 to 1000 nM | CN(C)CCOc1cc2c(c(N[C@H]3CCOC3)c1)CN(C(=O)c1c(O)cc(C#N)cc1OCc1ccccc1)C2 [Example 19, (S)-3-(Benzyloxy)-4-(6-(2-(dimethylamino)ethoxy)-4-((tetrahydrofuran-3-yl)amino)isoindoline-2-carbonyl)-5-hydroxybenzonitrile]
< 100 nM | CN1CC(Oc2ccc3c(c2)CN(C(=O)c2c(O)cc(C(F)F)cc2OCc2ccccc2)C3)C1 [Example 4.57, (2-(Benzyloxy)-4-(difluoromethyl)-6-hydroxyphenyl)(5-((1-methylazetidin-3-yl)oxy)isoindolin-2-yl)methanone]
100 to 1000 nM | Nc1cc2c(cn1)CN(C(=O)c1c(O)cc(C(F)F)cc1OCc1ccccc1)C2 [Example 27.11, (6-Amino-1,3-dihydro-2H-pyrrolo[3,4-c]pyridin-2-yl)(2-(benzyloxy)-4-(difluoromethyl)-6-hydroxyphenyl)methanone hydroformate]
100 to 1000 nM | CN1CC[C@@H](Nc2cccc3c2CN(C(=O)c2c(O)cc(C(F)F)cc2OCc2ccccc2)C3)C1=O [Example 4.14, (R)-3-((2-(2-(Benzyloxy)-4-(difluoromethyl)-6-hydroxybenzoyl)isoindolin-4-yl)amino)-1-methylpyrrolidin-2-one]
1000 to 10000 nM | COc1ccc2c(c1)CN(C(=O)c1c(O)cc(C#N)cc1OCc1ccccc1)C2 [Example 13, 3-(Benzyloxy)-5-hydroxy-4-(5-methoxyisoindoline-2-carbonyl)benzonitrile]
< 100 nM | CN1CCC(Oc2cc3c(c(N[C@H]4CCOC4)c2)CN(C(=O)c2c(O)cc(C(F)F)cc2OCc2ccccc2)C3)CC1 [Example 4.62, (S)-(2-(Benzyloxy)-4-(difluoromethyl)-6-hydroxyphenyl)(6-((1-methylpiperidin-4-yl)oxy)-4-((tetrahydrofuran-3-yl)amino)isoindolin-2-yl)methanone]
100 to 1000 nM | CC(=O)N1CC(Nc2cccc3c2CN(C(=O)c2c(O)cc(C(F)F)cc2OCc2ccccc2)C3)C1 [Example 4.3, 1-(3-((2-(2-(Benzyloxy)-4-(difluoromethyl)-6-hydroxybenzoyl)isoindolin-4-yl)amino)azetidin-1-yl)ethan-1-one]
100 to 1000 nM | CC(=O)N1CC[C@H](Nc2cccc3c2CN(C(=O)c2c(O)cc(C#N)cc2OCc2ccccc2)C3)C1 [Example 10.6, (S)-4-(4-((1-Acetylpyrrolidin-3-yl)amino)isoindoline-2-carbonyl)-3-(benzyloxy)-5-hydroxybenzonitrile]
< 100 nM | Cn1ncc2ccc(COc3cc(C(F)F)cc(O)c3C(=O)N3CCc4cccc(N[C@H]5CCOC5)c4C3)cc21 [Example 28, (S)-(4-(Difluoromethyl)-2-hydroxy-6-((1-methyl-1H-indazol-6-yl)methoxy)phenyl)(8-((tetrahydrofuran-3-yl)amino)-3,4-dihydroisoquinolin-2(1H)-yl)methanone]
